The results in this text go back to patent EP4722207A1, “OXOISOINDOLINYL-SUBSTITUTED TETRAHYDROPYRIMIDINEDIONE DERIVATIVE AND USE THEREOF” (Gluetacs Therapeutics (Shanghai) Co., Ltd., priority 2023, dated 2024).

What all share (type): cell-based
Conditions in all cases: 24 hours of compound treatment, 50 nM and 500 nM

The target of experiment [1] is T1, IKZF3 (Homo sapiens, UniProt Q96SW2+Q9UKT9).
T1 construct: effects of the compounds of the present disclosure on the expression of target proteins in cells; endogenous in cells; host or cells: human PBMCs (hPBMCs)
T1 sequence (Q9UKT9 whole entry): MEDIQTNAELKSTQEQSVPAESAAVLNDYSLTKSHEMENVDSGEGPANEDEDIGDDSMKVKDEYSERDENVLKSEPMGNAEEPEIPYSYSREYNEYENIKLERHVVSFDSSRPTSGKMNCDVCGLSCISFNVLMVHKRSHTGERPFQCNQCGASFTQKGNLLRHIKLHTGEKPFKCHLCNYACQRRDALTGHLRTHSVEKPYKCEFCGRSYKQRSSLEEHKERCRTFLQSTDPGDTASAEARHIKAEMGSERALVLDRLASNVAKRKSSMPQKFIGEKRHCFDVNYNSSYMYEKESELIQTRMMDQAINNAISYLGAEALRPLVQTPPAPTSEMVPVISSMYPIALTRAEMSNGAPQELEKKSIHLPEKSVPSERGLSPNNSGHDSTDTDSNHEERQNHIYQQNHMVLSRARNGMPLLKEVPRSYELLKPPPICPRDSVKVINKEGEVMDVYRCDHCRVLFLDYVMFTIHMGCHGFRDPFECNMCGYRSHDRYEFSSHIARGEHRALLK
T1 sequence (Q96SW2 whole entry): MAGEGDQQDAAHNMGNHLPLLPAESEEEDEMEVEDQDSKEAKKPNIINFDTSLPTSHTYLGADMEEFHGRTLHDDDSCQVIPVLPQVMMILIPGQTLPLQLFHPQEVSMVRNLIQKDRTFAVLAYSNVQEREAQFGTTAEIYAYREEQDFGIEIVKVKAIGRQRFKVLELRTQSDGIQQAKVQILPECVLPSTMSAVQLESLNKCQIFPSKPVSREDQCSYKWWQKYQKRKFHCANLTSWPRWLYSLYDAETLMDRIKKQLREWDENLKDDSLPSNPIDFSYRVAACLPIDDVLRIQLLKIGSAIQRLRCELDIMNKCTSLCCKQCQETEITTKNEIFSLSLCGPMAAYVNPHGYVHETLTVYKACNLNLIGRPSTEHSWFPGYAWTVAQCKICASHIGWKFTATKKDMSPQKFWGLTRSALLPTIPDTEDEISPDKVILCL
T1 sequence (Q16531 whole entry partner): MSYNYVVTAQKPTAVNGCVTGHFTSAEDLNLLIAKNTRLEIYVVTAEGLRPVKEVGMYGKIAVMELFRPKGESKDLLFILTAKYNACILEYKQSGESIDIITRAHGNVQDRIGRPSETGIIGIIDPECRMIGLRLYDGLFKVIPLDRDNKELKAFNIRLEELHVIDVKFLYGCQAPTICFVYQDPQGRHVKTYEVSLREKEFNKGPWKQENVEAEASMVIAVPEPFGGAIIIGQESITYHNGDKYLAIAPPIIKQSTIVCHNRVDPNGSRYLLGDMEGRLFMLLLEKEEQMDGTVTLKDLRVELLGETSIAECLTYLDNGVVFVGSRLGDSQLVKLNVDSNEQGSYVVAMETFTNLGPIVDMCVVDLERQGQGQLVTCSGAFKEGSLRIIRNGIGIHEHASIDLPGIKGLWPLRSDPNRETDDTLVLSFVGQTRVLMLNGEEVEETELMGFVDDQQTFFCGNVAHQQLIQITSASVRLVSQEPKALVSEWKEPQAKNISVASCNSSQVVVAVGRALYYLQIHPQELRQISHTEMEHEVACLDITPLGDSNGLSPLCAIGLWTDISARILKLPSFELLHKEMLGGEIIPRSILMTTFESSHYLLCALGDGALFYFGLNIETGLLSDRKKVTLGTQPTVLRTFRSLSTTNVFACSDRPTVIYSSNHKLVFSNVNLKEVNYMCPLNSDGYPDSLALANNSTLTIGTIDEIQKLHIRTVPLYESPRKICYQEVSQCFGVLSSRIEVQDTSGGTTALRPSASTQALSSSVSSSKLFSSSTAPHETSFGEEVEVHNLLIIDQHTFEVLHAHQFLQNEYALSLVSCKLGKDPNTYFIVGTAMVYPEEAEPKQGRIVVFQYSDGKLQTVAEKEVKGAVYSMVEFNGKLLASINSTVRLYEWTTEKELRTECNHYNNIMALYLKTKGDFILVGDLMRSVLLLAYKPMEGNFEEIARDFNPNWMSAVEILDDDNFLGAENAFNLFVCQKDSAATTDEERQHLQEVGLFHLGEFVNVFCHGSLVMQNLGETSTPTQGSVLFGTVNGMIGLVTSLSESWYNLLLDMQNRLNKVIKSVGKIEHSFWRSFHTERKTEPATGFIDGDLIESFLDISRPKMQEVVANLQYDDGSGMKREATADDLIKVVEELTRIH
Briefly: Western-blot assay, substrate protein degradation in hPBMCs: IKZF3.

In experiment [2] the target is T2, WEE1 (Homo sapiens, UniProt P30291+Q96SW2).
T2 construct: effects of the compounds of the present disclosure on the expression of target proteins in cells; endogenous in cells; host or cells: human PBMCs (hPBMCs)
Put plainly: Western-blot assay, substrate protein degradation in hPBMCs: WEE1.

The target of experiment [3] is T3, IKZF1 (Homo sapiens, UniProt Q13422+Q96SW2).
T3 construct: effects of the compounds of the present disclosure on the expression of target proteins in cells; endogenous in cells; host or cells: human PBMCs (hPBMCs)
T3 sequence (Q13422 whole entry): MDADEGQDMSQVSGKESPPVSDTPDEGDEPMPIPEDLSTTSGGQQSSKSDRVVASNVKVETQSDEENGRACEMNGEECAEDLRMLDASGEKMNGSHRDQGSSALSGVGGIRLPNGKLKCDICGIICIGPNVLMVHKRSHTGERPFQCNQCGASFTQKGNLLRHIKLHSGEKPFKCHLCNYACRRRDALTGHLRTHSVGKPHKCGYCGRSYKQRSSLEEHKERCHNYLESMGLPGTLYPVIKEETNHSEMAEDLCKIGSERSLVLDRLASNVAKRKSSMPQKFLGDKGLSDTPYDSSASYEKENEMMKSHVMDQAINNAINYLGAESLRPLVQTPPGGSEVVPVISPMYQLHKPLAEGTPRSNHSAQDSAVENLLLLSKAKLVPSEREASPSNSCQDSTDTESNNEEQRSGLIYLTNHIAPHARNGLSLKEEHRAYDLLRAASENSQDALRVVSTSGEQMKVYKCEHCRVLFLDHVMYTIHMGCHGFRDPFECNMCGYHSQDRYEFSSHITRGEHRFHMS
T3 sequence (Q96SW2 whole entry): as the sequence (Q96SW2 whole entry) above
T3 sequence (Q16531 whole entry partner): as the sequence (Q16531 whole entry partner) above
Briefly: Western-blot assay, substrate protein degradation in hPBMCs: IKZF1.

The target in experiment [4] is T4, IKZF2 (Homo sapiens, UniProt Q96SW2+Q9UKS7).
T4 construct: effects of the compounds of the present disclosure on the expression of target proteins in cells; endogenous in cells; host or cells: human PBMCs (hPBMCs)
T4 sequence (Q9UKS7 whole entry): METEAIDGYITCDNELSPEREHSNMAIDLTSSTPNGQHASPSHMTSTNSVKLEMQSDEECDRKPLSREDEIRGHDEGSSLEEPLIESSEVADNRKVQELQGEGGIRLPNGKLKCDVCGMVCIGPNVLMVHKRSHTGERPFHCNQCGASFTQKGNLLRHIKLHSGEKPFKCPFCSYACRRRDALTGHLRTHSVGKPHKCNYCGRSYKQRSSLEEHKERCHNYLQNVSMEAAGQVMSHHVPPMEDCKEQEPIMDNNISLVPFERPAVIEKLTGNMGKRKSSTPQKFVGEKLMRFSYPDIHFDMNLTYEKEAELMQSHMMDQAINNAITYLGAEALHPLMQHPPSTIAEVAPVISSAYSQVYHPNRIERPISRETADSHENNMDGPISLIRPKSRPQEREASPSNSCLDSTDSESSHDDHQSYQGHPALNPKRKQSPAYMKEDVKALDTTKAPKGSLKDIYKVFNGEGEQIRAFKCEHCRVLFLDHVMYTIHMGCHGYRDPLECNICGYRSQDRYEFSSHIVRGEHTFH
T4 sequence (Q96SW2 whole entry): as the sequence (Q96SW2 whole entry) above
T4 sequence (Q16531 whole entry partner): as the sequence (Q16531 whole entry partner) above
Put plainly: Western-blot assay, substrate protein degradation in hPBMCs: IKZF2.

Experiment [5] has as its target T5, CK1α (Homo sapiens, UniProt P48729+Q96SW2).
T5 construct: effects of the compounds of the present disclosure on the expression of target proteins in cells; endogenous in cells; host or cells: human PBMCs (hPBMCs)
Briefly: Western-blot assay, substrate protein degradation in hPBMCs: CK1α.

In experiment [6] the target is T6, GSPT1 (Homo sapiens, UniProt P15170+Q96SW2).
T6 construct: effects of the compounds of the present disclosure on the expression of target proteins in cells; endogenous in cells; host or cells: human PBMCs (hPBMCs)
T6 sequence (P15170 whole entry): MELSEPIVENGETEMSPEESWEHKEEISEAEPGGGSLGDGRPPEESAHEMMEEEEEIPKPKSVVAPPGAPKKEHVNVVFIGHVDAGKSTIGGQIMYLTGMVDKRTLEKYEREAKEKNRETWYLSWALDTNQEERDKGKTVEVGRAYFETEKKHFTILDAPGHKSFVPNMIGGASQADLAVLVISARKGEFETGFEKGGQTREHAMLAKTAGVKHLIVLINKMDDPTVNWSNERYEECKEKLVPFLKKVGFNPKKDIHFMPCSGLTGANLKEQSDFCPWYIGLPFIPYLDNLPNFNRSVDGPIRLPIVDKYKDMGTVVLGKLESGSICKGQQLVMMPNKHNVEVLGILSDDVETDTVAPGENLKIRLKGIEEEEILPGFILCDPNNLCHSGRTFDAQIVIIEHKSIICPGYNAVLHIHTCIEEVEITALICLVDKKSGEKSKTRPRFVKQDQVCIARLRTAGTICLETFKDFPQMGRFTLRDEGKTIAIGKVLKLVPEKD
T6 sequence (Q96SW2 whole entry): as the sequence (Q96SW2 whole entry) above
T6 sequence (Q16531 whole entry partner): as the sequence (Q16531 whole entry partner) above
Briefly: Western-blot assay, substrate protein degradation in hPBMCs: GSPT1.

T5 sequence (P48729 whole entry): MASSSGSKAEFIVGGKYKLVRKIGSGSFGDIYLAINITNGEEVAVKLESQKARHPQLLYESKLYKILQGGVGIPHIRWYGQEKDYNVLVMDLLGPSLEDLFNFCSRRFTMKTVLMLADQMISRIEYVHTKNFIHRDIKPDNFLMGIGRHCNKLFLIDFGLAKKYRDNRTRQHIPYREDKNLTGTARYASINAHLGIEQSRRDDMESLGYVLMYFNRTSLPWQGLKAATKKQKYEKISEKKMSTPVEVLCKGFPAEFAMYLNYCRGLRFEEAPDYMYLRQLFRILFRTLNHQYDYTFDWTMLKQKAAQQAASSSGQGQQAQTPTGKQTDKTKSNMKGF
T5 sequence (Q96SW2 whole entry): as the sequence (Q96SW2 whole entry) above
T5 sequence (Q16531 whole entry partner): as the sequence (Q16531 whole entry partner) above

For `Cn1cc(C2CCN(Cc3ccc4c(c3)C(=O)N(N3CCC(=O)NC3=O)C4=O)CC2)c2ccc(F)cc21` [GT-07581, 2-(2,4-dioxotetrahydropyrimidin-1(2H)-yl)-5-((4-(6-fluoro-1-methyl-1H-indol-3-yl)piperidin-1-yl)methyl)isoindoline-1,3-dione], the “substrate protein remaining % IKZF3” value in experiment [1] was “B (80%< substrate protein remaining %≤ 100%)”. Further, the “substrate protein remaining % WEE1” value in experiment [2] was “A (0% ≤ substrate protein remaining % ≤ 80%)”. The “substrate protein remaining % IKZF1” value in experiment [3] is “A (0% ≤ substrate protein remaining % ≤ 80%)”. The “substrate protein remaining % IKZF2” value in experiment [4] is on record as “A (0% ≤ substrate protein remaining % ≤ 80%)”. Moreover, the “substrate protein remaining % CK1α” value in experiment [5] is on record as “B (80%< substrate protein remaining %≤ 100%)”. For the same compound, the “substrate protein remaining % GSPT1” value in experiment [6] is “A (0% ≤ substrate protein remaining % ≤ 80%)”.

In the case of `O=C1CCN(N2C(=O)c3ccc(CN4CCC(c5c[nH]c6ncccc56)CC4)cc3C2=O)C(=O)N1` [GT-07582, 5-((4-(1H-pyrrolo[2,3-b]pyridin-3-yl)piperidin-1-yl)methyl)-2-(2,4-dioxotetrahydropyrimidin-1(2H)-yl)isoindoline-1,3-dione], the “substrate protein remaining % IKZF3” value in experiment [1] is reported as “B (80%< substrate protein remaining %≤ 100%)”. The “substrate protein remaining % WEE1” value in experiment [2] is “A (0% ≤ substrate protein remaining % ≤ 80%)”. For the same compound, the “substrate protein remaining % IKZF1” value in experiment [3] is recorded as “A (0% ≤ substrate protein remaining % ≤ 80%)”. Also, the “substrate protein remaining % IKZF2” value in experiment [4] is “A (0% ≤ substrate protein remaining % ≤ 80%)”. The “substrate protein remaining % CK1α” value in experiment [5] is “B (80%< substrate protein remaining %≤ 100%)”. The “substrate protein remaining % GSPT1” value in experiment [6] was “A (0% ≤ substrate protein remaining % ≤ 80%)”.

On to `O=C1CCN(N2C(=O)c3ccc(CN4CCC(n5c(=O)[nH]c6cc(F)ccc65)CC4)cc3C2=O)C(=O)N1` [GT-07583, 2-(2,4-dioxotetrahydropyrimidin-1(2H)-yl)-5-((4-(5-fluoro-2-oxo-2,3-dihydro-1H-benzo[d]imidazol-1-yl)piperidin-1-yl)methyl)isoindoline-1,3-dione], for which, in experiment [1], the “substrate protein remaining % IKZF3” value was “B (80%< substrate protein remaining %≤ 100%)”. In experiment [2], the “substrate protein remaining % WEE1” value is reported as “A (0% ≤ substrate protein remaining % ≤ 80%)”. Moreover, the “substrate protein remaining % IKZF1” value in experiment [3] is listed as “B (80%< substrate protein remaining %≤ 100%)”. Besides, in experiment [4], the “substrate protein remaining % IKZF2” value is listed as “B (80%< substrate protein remaining %≤ 100%)”. In addition, the “substrate protein remaining % CK1α” value in experiment [5] is recorded as “B (80%< substrate protein remaining %≤ 100%)”. For the same compound, the “substrate protein remaining % GSPT1” value in experiment [6] is on record as “A (0% ≤ substrate protein remaining % ≤ 80%)”.

Take `O=C1CCN(N2Cc3cc(CN4CCC(N5CCCc6cc(F)ccc65)CC4)ccc3C2=O)C(=O)N1` [GT-07584, 1-(5-((4-(6-fluoro-3,4-dihydroquinolin-1(2H)-yl)piperidin-1-yl)methyl)-1-oxoisoindolin-2-yl)dihydropyrimidine-2,4(1H,3H)-dione]: the “substrate protein remaining % IKZF3” value in experiment [1] was “B (80%< substrate protein remaining %≤ 100%)”. Moreover, the “substrate protein remaining % WEE1” value in experiment [2] is recorded as “A (0% ≤ substrate protein remaining % ≤ 80%)”. The “substrate protein remaining % IKZF1” value in experiment [3] was “A (0% ≤ substrate protein remaining % ≤ 80%)”. Moreover, the “substrate protein remaining % IKZF2” value in experiment [4] is recorded as “B (80%< substrate protein remaining %≤ 100%)”. Further, in experiment [5], the “substrate protein remaining % CK1α” value was “B (80%< substrate protein remaining %≤ 100%)”. For the same compound, the “substrate protein remaining % GSPT1” value in experiment [6] is listed as “A (0% ≤ substrate protein remaining % ≤ 80%)”.

With `O=C1CCN(N2Cc3cc(CN4CCC(N5CCOc6cc(F)ccc65)CC4)ccc3C2=O)C(=O)N1` [GT-07585, 1-(5-((4-(7-fluoro-2,3-dihydro-4H-benzo[b][1,4]oxazin-4-yl)piperidin-1-yl)methyl)-1-oxoisoindolin-2-yl)dihydropyrimidine-2,4(1H,3H)-dione], the “substrate protein remaining % IKZF3” value in experiment [1] is reported as “B (80%< substrate protein remaining %≤ 100%)”. In experiment [2], the “substrate protein remaining % WEE1” value is recorded as “A (0% ≤ substrate protein remaining % ≤ 80%)”. In addition, in experiment [3], the “substrate protein remaining % IKZF1” value was “A (0% ≤ substrate protein remaining % ≤ 80%)”. Further, the “substrate protein remaining % IKZF2” value in experiment [4] is “B (80%< substrate protein remaining %≤ 100%)”. Further, the “substrate protein remaining % CK1α” value in experiment [5] was “B (80%< substrate protein remaining %≤ 100%)”. In addition, in experiment [6], the “substrate protein remaining % GSPT1” value was “A (0% ≤ substrate protein remaining % ≤ 80%)”.

As for `O=C1CCN(N2Cc3cc(CN4CCC(N5C(=O)COc6cc(F)ccc65)CC4)ccc3C2=O)C(=O)N1` [GT-07586, 1-(5-((4-(7-fluoro-3-oxo-2,3-dihydro-4H-benzo[b][1,4]oxazin-4-yl)piperidin-1-yl)methyl)-1-oxoisoindolin-2-yl)dihydropyrimidine-2,4(1H,3H)-dione], the “substrate protein remaining % IKZF3” value in experiment [1] was “B (80%< substrate protein remaining %≤ 100%)”. Moreover, in experiment [2], the “substrate protein remaining % WEE1” value is recorded as “A (0% ≤ substrate protein remaining % ≤ 80%)”. Further, the “substrate protein remaining % IKZF1” value in experiment [3] is reported as “A (0% ≤ substrate protein remaining % ≤ 80%)”. The “substrate protein remaining % IKZF2” value in experiment [4] is reported as “B (80%< substrate protein remaining %≤ 100%)”. Besides, the “substrate protein remaining % CK1α” value in experiment [5] is given as “B (80%< substrate protein remaining %≤ 100%)”. In experiment [6], the “substrate protein remaining % GSPT1” value is “A (0% ≤ substrate protein remaining % ≤ 80%)”.

Take `O=C1CCN(N2Cc3cc(CN4CCC(C5CCOc6cc(F)ccc65)CC4)ccc3C2=O)C(=O)N1` (stereo not drawn) [GT-07587, 1-(5-((4-(7-fluorochroman-4-yl)piperidin-1-yl)methyl)-1-oxoisoindolin-2-yl)dihydropyrimidine-2,4(1H,3H)-dione]: the “substrate protein remaining % IKZF3” value in experiment [1] is on record as “B (80%< substrate protein remaining %≤ 100%)”. Besides, the “substrate protein remaining % WEE1” value in experiment [2] is recorded as “A (0% ≤ substrate protein remaining % ≤ 80%)”. For the same compound, in experiment [3], the “substrate protein remaining % IKZF1” value is reported as “A (0% ≤ substrate protein remaining % ≤ 80%)”. Also, the “substrate protein remaining % IKZF2” value in experiment [4] is given as “B (80%< substrate protein remaining %≤ 100%)”. Further, in experiment [5], the “substrate protein remaining % CK1α” value was “B (80%< substrate protein remaining %≤ 100%)”. The “substrate protein remaining % GSPT1” value in experiment [6] is recorded as “A (0% ≤ substrate protein remaining % ≤ 80%)”.

Regarding `O=C1CCN(N2Cc3cc(CN4CCC(=C5CCOc6cc(F)ccc65)CC4)ccc3C2=O)C(=O)N1` [GT-07588, 1-(5-((4-(7-fluorochroman-4-ylidene)piperidin-1-yl)methyl)-1-oxoisoindolin-2-yl)dihydropyrimidine-2,4(1H,3H)-dione], in experiment [1], the “substrate protein remaining % IKZF3” value is on record as “B (80%< substrate protein remaining %≤ 100%)”. Also, the “substrate protein remaining % WEE1” value in experiment [2] is “B (80%< substrate protein remaining %≤ 100%)”. In addition, the “substrate protein remaining % IKZF1” value in experiment [3] was “B (80%< substrate protein remaining %≤ 100%)”. Besides, the “substrate protein remaining % IKZF2” value in experiment [4] is on record as “B (80%< substrate protein remaining %≤ 100%)”. For the same compound, the “substrate protein remaining % CK1α” value in experiment [5] was “B (80%< substrate protein remaining %≤ 100%)”. Also, the “substrate protein remaining % GSPT1” value in experiment [6] is reported as “A (0% ≤ substrate protein remaining % ≤ 80%)”.

For the compound `O=C1CCN(N2Cc3cc(CN4CCC(c5cccc6c(F)cccc56)CC4)ccc3C2=O)C(=O)N1` [GT-07589, 1-(5-((4-(5-fluoronaphthalen-1-yl)piperidin-1-yl)methyl)-1-oxoisoindolin-2-yl)dihydropyrimidine-2,4(1H,3H)-dione], in experiment [1], the “substrate protein remaining % IKZF3” value was “B (80%< substrate protein remaining %≤ 100%)”. Also, the “substrate protein remaining % WEE1” value in experiment [2] is on record as “B (80%< substrate protein remaining %≤ 100%)”. Also, the “substrate protein remaining % IKZF1” value in experiment [3] was “B (80%< substrate protein remaining %≤ 100%)”. Moreover, the “substrate protein remaining % IKZF2” value in experiment [4] is listed as “B (80%< substrate protein remaining %≤ 100%)”. Besides, in experiment [5], the “substrate protein remaining % CK1α” value is “B (80%< substrate protein remaining %≤ 100%)”. Moreover, in experiment [6], the “substrate protein remaining % GSPT1” value is recorded as “A (0% ≤ substrate protein remaining % ≤ 80%)”.

With `O=C1CCN(N2Cc3cc(CN4CCC(c5noc6ccccc56)CC4)ccc3C2=O)C(=O)N1` [GT-07642, 1-(5-((4-(benzo[d]isoxazol-3-yl)piperidin-1-yl)methyl)-1-oxoisoindolin-2-yl)dihydropyrimidine-2,4(1H,3H)-dione], the “substrate protein remaining % IKZF3” value in experiment [1] is “B (80%< substrate protein remaining %≤ 100%)”. Also, the “substrate protein remaining % WEE1” value in experiment [2] is given as “B (80%< substrate protein remaining %≤ 100%)”. Moreover, in experiment [3], the “substrate protein remaining % IKZF1” value is “B (80%< substrate protein remaining %≤ 100%)”. In addition, the “substrate protein remaining % IKZF2” value in experiment [4] is “B (80%< substrate protein remaining %≤ 100%)”. Moreover, the “substrate protein remaining % CK1α” value in experiment [5] is given as “B (80%< substrate protein remaining %≤ 100%)”. In experiment [6], the “substrate protein remaining % GSPT1” value is given as “A (0% ≤ substrate protein remaining % ≤ 80%)”.

In the case of `O=C1CCN(N2C(=O)c3ccc(CN4CC=C(c5n[nH]c6cc(F)ccc56)CC4)cc3C2=O)C(=O)N1` [GT-07643, 2-(2,4-dioxotetrahydropyrimidin-1(2H)-yl)-5-((4-(6-fluoro-1H-indazol-3-yl)-3,6-dihydropyridin-1(2H)-yl)methyl)isoindoline-1,3-dione], the “substrate protein remaining % IKZF3” value in experiment [1] was “B (80%< substrate protein remaining %≤ 100%)”. Besides, the “substrate protein remaining % WEE1” value in experiment [2] is on record as “B (80%< substrate protein remaining %≤ 100%)”. Also, in experiment [3], the “substrate protein remaining % IKZF1” value is “B (80%< substrate protein remaining %≤ 100%)”. Further, the “substrate protein remaining % IKZF2” value in experiment [4] was “B (80%< substrate protein remaining %≤ 100%)”. Besides, the “substrate protein remaining % CK1α” value in experiment [5] is on record as “B (80%< substrate protein remaining %≤ 100%)”. Also, in experiment [6], the “substrate protein remaining % GSPT1” value is on record as “A (0% ≤ substrate protein remaining % ≤ 80%)”.
